# Measured values from US20240317711A1, “AURKA SELECTIVE DEGRADATION INDUCING COMPOUND” (UPPTHERA INC., priority 2021, published 2024).
# Molecular target: T1, AURKA (Homo sapiens, UniProt O14965)
# T1 construct: An MDA-MB-231 cell line was purchased from the Korea Cell Line Bank; endogenous in cells; host or cells: MDA-MB-231
# T1 sequence (O14965 1-403): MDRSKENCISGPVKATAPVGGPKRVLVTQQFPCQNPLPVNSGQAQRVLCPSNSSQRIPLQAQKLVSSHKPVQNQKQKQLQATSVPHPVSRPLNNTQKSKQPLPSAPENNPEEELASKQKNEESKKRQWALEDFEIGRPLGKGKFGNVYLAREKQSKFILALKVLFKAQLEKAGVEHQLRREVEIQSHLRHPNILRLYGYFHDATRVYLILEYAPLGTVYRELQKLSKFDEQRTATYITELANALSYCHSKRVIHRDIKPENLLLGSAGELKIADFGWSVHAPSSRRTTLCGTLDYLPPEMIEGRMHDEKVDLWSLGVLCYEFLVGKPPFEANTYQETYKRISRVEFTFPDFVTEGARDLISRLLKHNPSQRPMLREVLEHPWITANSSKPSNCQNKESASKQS
# Assay: Western blotting of AURKA degradation after 24 hours of compound treatment of MDA-MB-231 cell line
# Assay type: cell-based
# Details: compound 0.1 μM, MDA-MB-231 cells, Western blot
# Text: An MDA-MB-231 cell line was purchased from the Korea Cell Line Bank. The passage of cultured cells was maintained within P50.
# For cell counting, a cell counter (Catalog #AMQAX1000) from Thermo and a 0.4% Trypan blue solution were used.
# For cell culture, there were used RPMI (Gibco, Cat. No. 22400-089; Lot. No. 2323633), FBS (Gibco, Cat. No. 16000044; Lot. No. 2454168P), Penicillin/Streptomycin (PS) (Gibco, Cat. No. 15140-122; Lot. No. 2321150), 100 mm culture plate (SPL, Cat. No. 20100), 6-well culture plate (SPL, Cat. No. 30006), PBS pH7.4 (Gibco, Cat. No. 10010-023; Lot. No. 2380329), counting chamber (Hematocytometer) (Hirschmann, Cat. No. 8100204), and 0.4% trypan blue solution (DYNEBIO, Cat. No. CBT3710; Lot. No. 20211201).
# 3×10^5 cells were seeded in each well of a 12-well plate (SPL), and the cells were cultured in a total culture medium volume of 1 mL. […]
# Next, a standard curve was obtained using the BCA assay and the protein mass in the lysate was quantified by substituting the obtained standard curve. The mixture was incubated at 37° C. for 30 minutes using 20 μL of a standard or sample solution and 200 μL of a BCA or Bradford solution, and absorbance was measured at 562 nm. […]
structure (smiles),measurement,value
O=C1CCC(N2C(=O)c3cccc(NCCCCCCN4CCN(C(=O)Cc5ccc(Nc6ncc(F)c(Nc7ccc(C(=O)Nc8ccccc8Cl)cc7)n6)cc5)CC4)c3C2=O)C(=O)N1 (stereo not shown) [Compound 14],AURKA protein degradation activity,≥ 95%
